Measurements as given in patent US9394570B2, “Marker for colon cancer and method for detecting colon cancer” (The Chinese University of Hong Kong, priority 2010, dated 2016).
Entries after “also recorded” stand apart in the source; their conditions may differ.

System: TBX5 expression in methylated colon cancer cell lines
Assay: Demethylation with 5-Aza, TBX5 mRNA expression by RT-PCR
Type: cell-based, human
Settings: 2 μM 5-Aza for 5 days; 4 methylated cell lines with silenced or downregulated TBX5
Experimental: Total RNA was extracted from cell pellets and tissues using TRIzol Reagent according to the manufacturer's instruction (Molecular Research Center, Inc., Cincinnati, Ohio). cDNA was synthesized from 2 μg total RNA using Transcriptor Reverse Transcriptase (Roche Applied Sciences, Indianapolis, Ind.). For semi-quantitative RT-PCR, a 151 bp fragment of the TBX5 gene was amplified for 36 cycles using AmpliTaq Gold DNA polymerase (Applied Biosystems, Foster City, Calif.) as previously reported (Yu et al, Gastro), with β-actin as internal control. The primer sequences of TBX5 are: forward 5′-[…]-3′ (SEQ ID NO:2) and reverse 5′-[…]-3′ (SEQ ID NO:3). Real-time PCR was performed using SYBR Green master mixture on HT7900 system according to the manufactures' instructions (Applied Biosystems).
Cells were seeded at a density of 1×10^6 cells/mL. After 24 hours, cells were treated with 2 μM of the DNA demethylating agent 5-Aza (Sigma-Aldrich, St Louis, Mo.) for 5 days. 5-Aza was replenished every day. Controlled cells were treated with an equivalent concentration of vehicle (DMSO). Cells were then harvested for DNA and RNA extractions.

## Nc1ncn([C@H]2C[C@H](O)[C@@H](CO)O2)c(=O)n1 [5-Aza, 5-Aza-2′-deoxycytidine]
  TBX5 mRNA expression after demethylation treatment: restoration of TBX5 expression in all cell lines examined; also recorded: restored
